Test [1] addresses T1, Endoribonuclease toxin MazF (Escherichia coli K-12, UniProt P0AE70).
T1 sequence (P0AE70 whole entry): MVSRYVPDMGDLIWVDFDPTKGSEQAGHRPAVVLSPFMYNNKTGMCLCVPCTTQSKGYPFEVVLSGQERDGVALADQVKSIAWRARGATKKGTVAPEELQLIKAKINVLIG
The experiment in a line: substrate-only fluorescence increase artefacts – biochemical, single-stranded RNase substrate, counter-screen for MazEF activator project, dose response (AID 588502). In kind it is functional. Background: A counterscreen serves to expose hits that act by an unwanted route or on another target.

Test [2] has as its target Female germline-specific tumor suppressor gld-1 (Caenorhabditis elegans, UniProt Q17339). The test is described as follows: blockers of GLD-1/TGE RNA complex formation – biochemical, fluorescence polarization, C. elegans, dose response (AID 2802).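 Note: fluorescence polarization of labeled TGE RNA bound by purified gld-1 protein.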 On the technique in general: Fluorescence polarisation rises when a labelled molecule tumbles more slowly, as on binding a larger partner.

For test [3], the target named is Protein Rev (Human immunodeficiency virus type 1 group M subtype B (isolate HXB2)(HIV-1), UniProt P04618). The experiment in a line: blockers of HIV Rev/RRE RNA complex – biochemical, fluorescence polarization, HIV-1, dose response (AID 434976). Details: species or system Human immunodeficiency virus 1.
Protein Rev, sequence (P04618 whole entry): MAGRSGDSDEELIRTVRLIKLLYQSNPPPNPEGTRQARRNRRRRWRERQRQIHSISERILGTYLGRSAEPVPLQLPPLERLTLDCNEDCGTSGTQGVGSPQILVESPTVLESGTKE
The target in test [4] is T1, Endoribonuclease toxin MazF. The test is described as follows: activation of MazEF endoribonuclease cleavage – biochemical, fluorescence, single-stranded RNA substrate, uHTS hits, dose response (AID 588481). In kind it is functional.
A short description of test [5]: RanGTP/importin-beta interaction disruptors – biochemical, plate reader, dry powder, dose response (AID 493048). Also noted: species or system Homo sapiens.
In test [6] the target is Phosphomannomutase 2 (Homo sapiens, UniProt O15305). The test is described as follows: Counter screen SAR assay for PMM2 inhibitors via a fluorescence intensity assay. [Related pubchem assays (depositor defined):AID1545, AID1574].
Phosphomannomutase 2, sequence (O15305 whole entry): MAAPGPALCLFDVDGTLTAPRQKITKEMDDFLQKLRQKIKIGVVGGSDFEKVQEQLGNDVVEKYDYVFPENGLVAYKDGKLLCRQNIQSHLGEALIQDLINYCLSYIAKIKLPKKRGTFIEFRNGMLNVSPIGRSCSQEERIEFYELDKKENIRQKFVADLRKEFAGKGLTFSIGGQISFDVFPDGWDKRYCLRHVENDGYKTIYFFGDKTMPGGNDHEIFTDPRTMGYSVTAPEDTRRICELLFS
Test [7] addresses Phosphoethanolamine/phosphocholine phosphatase (Homo sapiens, UniProt Q8TCT1). The test is described as follows: SAR assay for compounds that inhibit PHOSPHO1. [Related pubchem assays (depositor defined):AID1545, AID1565, AID1574].
In test [8] the target is T2, Mannose-6-phosphate isomerase (Homo sapiens, UniProt P34949).
T2 sequence (P34949 whole entry): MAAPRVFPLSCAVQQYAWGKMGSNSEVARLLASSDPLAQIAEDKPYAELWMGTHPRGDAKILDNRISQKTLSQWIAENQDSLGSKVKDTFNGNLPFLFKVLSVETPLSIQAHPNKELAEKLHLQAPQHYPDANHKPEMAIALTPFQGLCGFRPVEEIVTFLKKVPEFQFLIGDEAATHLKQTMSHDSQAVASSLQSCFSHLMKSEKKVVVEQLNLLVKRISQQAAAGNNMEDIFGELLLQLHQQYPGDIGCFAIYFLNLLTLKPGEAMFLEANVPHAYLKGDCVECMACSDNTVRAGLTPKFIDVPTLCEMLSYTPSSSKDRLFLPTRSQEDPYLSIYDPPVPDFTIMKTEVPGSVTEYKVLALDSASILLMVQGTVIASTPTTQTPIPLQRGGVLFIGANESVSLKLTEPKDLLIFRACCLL
The test is described as follows: phosphomannose isomerase inhibition – biochemical, fluorescence intensity, confirmation (AID 1535).

For test [9], the target named is T3, Histone-lysine N-methyltransferase NSD2 (Homo sapiens, UniProt O96028).
T3 sequence (O96028 whole entry): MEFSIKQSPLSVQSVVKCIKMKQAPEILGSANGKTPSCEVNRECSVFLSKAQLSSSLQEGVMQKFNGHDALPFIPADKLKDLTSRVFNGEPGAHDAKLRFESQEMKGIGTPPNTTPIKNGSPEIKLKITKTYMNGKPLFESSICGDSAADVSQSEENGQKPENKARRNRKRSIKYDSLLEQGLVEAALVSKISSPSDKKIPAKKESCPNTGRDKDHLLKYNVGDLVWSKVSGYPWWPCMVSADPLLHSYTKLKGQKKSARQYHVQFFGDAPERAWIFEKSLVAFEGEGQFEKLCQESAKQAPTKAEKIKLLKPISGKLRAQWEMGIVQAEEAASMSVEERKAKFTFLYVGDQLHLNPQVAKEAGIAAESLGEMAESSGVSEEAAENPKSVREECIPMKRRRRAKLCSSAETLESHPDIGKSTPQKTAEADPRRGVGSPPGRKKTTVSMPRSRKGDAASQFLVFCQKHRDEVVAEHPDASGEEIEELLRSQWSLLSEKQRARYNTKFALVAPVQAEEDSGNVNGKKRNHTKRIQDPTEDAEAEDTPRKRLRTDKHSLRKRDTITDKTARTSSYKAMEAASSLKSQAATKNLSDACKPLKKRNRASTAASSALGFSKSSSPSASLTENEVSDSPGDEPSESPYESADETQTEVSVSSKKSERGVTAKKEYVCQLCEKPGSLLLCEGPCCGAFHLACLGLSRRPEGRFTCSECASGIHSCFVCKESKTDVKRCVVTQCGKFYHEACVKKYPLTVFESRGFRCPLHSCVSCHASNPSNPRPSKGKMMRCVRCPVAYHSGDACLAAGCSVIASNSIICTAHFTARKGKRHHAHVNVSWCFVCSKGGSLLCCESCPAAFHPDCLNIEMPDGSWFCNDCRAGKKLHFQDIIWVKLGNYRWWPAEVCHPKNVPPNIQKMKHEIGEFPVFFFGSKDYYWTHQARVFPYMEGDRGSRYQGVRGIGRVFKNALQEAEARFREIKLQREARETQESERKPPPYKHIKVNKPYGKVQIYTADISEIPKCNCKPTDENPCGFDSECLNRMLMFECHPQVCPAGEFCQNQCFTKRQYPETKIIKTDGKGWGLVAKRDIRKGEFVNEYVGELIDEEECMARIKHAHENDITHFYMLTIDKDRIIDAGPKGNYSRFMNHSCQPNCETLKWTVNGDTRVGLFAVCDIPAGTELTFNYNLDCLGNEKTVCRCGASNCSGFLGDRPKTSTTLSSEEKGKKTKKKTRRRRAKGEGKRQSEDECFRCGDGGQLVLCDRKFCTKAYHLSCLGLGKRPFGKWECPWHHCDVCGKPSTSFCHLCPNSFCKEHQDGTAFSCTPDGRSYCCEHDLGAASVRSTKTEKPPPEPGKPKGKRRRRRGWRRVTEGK
The format is biochemical.

A short description of test [10]: non-specific 3'UTR reporter inhibition in Clone20-Shn3RL – cell-based, Renilla luciferase, cherry-picked, counter-screen for Shn3 inhibitor project, dose response (AID 624133). In kind it is functional.
Test [11] has as its target T4, Rac GTPase-activating protein 1 (Homo sapiens, UniProt Q9H0H5).
T4 sequence (Q9H0H5 whole entry): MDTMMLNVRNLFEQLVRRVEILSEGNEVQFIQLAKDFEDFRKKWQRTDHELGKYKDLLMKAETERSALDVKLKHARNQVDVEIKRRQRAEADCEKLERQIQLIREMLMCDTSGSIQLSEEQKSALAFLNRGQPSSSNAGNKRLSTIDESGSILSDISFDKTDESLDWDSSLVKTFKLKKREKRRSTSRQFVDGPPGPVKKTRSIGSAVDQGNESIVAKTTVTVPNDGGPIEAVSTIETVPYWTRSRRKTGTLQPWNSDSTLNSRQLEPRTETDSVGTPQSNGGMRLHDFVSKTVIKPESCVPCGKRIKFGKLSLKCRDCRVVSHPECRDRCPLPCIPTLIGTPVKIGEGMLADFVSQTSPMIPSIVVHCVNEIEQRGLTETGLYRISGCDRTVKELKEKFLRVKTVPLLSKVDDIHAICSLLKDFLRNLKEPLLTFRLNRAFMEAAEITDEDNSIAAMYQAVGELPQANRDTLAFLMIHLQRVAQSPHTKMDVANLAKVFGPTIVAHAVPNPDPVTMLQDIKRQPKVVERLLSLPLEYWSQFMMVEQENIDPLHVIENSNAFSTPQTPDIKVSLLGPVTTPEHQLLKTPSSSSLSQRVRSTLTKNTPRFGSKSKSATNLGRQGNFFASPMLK
The experiment in a line: blockers of MgcRacGAP-driven Rac1 GTP hydrolysis – biochemical, ADP Hunter fluorescence, primary and confirmatory, confirmation (AID 624330). The format is functional.

Test [12] is described as follows: Luminescence-based cell-based high throughput dose response assay to identify activators of the DAF-12 from the parasite S. stercoralis (ssDAF-12). The format is functional.
The target in test [13] is T5, DNA repair protein RAD52 homolog (Homo sapiens, UniProt P43351).
T5 sequence (P43351 whole entry): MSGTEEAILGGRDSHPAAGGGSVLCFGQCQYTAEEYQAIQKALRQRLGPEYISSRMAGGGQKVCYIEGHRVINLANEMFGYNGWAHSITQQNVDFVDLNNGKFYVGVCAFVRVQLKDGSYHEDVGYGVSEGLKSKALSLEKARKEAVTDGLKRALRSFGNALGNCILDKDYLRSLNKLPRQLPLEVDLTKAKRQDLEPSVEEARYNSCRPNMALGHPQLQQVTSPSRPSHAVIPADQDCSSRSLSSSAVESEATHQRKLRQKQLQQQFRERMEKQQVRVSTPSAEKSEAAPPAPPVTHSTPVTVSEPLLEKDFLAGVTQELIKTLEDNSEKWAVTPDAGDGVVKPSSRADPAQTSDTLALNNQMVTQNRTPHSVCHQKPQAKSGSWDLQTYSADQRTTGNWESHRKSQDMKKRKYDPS
In kind it is functional, biochemical.

Test [14] has as its target Paired box protein Pax-8 (Homo sapiens, UniProt Q06710). The test is described as follows: PAX8 transcriptional activity inhibition in RMG-I – RMG-I cells, luciferase, cherry-pick, dose response (AID 687027).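 Note: luciferase reporter driven by Pax8 target thyroperoxidase promoter measured by SteadyGlo luminescence.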 In kind it is functional, cell-based.
For test [15], the target named is T6, Oxysterols receptor LXR-beta (Homo sapiens, UniProt P55055).
T6 sequence (P55055 whole entry): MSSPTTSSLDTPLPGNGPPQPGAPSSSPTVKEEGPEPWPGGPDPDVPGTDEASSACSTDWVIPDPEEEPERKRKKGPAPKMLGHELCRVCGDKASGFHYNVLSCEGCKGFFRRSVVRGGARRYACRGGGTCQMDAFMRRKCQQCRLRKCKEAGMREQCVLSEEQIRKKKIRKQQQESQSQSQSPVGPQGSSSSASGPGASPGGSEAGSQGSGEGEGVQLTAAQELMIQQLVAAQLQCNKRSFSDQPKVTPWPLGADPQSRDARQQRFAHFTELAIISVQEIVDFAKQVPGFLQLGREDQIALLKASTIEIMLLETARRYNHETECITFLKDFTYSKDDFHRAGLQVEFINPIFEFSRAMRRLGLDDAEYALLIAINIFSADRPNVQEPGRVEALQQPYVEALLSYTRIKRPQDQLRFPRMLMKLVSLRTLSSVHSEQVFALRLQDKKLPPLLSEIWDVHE
The experiment in a line: LXR agonists, Gal4 luciferase reporter, dose response, counter-screen for ssDAF-12 agonist project, cell-based, luminescence, HEK293, S. stercoralis campaign (AID 720737). The format is functional. The note with it: read-out: IC50 (the source's name).

A short description of test [16]: viability loss in HeLa cells – cytotoxicity control for MgcRacGAP inhibitor project, dose response (AID 624300). The format is functional.
Test [17] is described as follows: reduction of Shn3 3'UTR-driven luciferase in osteoblasts – cell-based, Clone20 osteoblasts, firefly luciferase, cherry-picked, dose response (AID 624132).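 Note: firefly luciferase luminescence from reporter carrying the Shn3 3'UTR in osteoblasts.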 In kind it is functional.
A short description of test [18]: loss of viability in HepG2 cells – cell-based, CellTiter-Glo, cherry-picked, cytotoxicity control for Shn3 inhibitor project, dose response (AID 624134). The format is functional. On the technique in general: In ATP-based viability assays light output follows the ATP content of the culture.
A short description of test [19]: Cytotoxicity screening for potential Inhibitors of Bacterial Capsule Biogenesis. [Related pubchem assays (depositor defined):AID488970]. The format is functional.
Test [20] concerns the target T7, SUMO-activating enzyme (Homo sapiens, UniProt Q9UBT2). The experiment in a line: blockers of SAE1/SAE2–UBC9 SUMO transfer – biochemical, HTRF, uHTS, primary screen (AID 2006). The format is protein-complex assay.
The target of test [21] is Induced myeloid leukemia cell differentiation protein Mcl-1 (Homo sapiens, UniProt Q07820). In kind it is functional.
Induced myeloid leukemia cell differentiation protein Mcl-1, sequence (Q07820 whole entry): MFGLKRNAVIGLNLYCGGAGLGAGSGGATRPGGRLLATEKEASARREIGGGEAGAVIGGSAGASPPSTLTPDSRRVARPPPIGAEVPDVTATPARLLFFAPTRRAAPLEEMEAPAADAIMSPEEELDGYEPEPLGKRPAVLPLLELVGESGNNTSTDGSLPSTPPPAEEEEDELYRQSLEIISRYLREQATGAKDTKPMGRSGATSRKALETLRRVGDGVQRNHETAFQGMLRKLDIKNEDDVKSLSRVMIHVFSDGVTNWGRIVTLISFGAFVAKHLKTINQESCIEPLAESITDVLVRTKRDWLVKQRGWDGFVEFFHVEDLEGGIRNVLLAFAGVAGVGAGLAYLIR
The target in test [22] is T7, SUMO-activating enzyme. The experiment in a line: blockers of UBC9-mediated SUMO conjugation – biochemical, AlphaScreen, SUMOylation inhibitor project, confirmation (AID 2018). The format is functional.

For orientation: IC50 means the concentration at which inhibition is half-maximal. In general, AC50 refers to the concentration at which the activity in the assay is half-maximal. Usually CC50 stands for the concentration at which the toxic effect on the cells reaches its halfway point.

Activity calls are given as the source filed them.

T7 sequence (Q9UBE0 whole entry): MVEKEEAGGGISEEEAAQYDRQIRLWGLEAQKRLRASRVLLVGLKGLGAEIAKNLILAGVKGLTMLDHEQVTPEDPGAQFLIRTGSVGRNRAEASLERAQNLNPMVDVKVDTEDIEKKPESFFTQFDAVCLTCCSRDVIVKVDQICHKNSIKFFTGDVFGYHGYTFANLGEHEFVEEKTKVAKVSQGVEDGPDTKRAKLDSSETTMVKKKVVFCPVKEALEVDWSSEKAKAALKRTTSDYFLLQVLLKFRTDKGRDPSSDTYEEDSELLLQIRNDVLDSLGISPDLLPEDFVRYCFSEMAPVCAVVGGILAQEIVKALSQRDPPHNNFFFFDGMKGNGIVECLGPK
T7 sequence (Q9UBT2 whole entry): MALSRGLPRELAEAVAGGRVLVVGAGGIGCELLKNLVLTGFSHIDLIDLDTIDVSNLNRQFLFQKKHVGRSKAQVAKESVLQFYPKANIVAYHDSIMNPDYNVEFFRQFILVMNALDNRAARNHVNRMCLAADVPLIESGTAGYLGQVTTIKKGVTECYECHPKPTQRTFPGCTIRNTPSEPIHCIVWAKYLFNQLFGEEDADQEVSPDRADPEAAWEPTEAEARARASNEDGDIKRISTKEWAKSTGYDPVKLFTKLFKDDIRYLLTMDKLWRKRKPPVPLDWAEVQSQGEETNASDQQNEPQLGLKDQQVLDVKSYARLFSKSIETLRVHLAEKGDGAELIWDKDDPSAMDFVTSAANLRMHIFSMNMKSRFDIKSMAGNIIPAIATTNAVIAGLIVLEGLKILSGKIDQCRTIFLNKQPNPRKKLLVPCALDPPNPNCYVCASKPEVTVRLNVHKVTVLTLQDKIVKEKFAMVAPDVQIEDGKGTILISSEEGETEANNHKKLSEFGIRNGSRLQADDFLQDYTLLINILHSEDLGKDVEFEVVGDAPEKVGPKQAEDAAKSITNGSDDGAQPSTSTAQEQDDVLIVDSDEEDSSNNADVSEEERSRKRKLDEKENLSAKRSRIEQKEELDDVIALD
Paired box protein Pax-8, sequence (Q06710 whole entry): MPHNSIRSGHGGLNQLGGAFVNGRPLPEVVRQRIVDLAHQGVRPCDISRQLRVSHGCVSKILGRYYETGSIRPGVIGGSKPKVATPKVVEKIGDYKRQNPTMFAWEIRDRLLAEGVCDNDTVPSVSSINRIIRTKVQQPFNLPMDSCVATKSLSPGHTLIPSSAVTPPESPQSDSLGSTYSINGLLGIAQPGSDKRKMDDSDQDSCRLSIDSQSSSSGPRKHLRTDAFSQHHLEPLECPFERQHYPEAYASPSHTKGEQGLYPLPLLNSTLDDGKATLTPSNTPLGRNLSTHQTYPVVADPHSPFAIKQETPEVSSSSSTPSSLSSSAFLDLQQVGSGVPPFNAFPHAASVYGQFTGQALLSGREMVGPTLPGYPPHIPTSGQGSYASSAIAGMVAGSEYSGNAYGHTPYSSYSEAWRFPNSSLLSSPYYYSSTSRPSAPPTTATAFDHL
Female germline-specific tumor suppressor gld-1, sequence (Q17339 whole entry): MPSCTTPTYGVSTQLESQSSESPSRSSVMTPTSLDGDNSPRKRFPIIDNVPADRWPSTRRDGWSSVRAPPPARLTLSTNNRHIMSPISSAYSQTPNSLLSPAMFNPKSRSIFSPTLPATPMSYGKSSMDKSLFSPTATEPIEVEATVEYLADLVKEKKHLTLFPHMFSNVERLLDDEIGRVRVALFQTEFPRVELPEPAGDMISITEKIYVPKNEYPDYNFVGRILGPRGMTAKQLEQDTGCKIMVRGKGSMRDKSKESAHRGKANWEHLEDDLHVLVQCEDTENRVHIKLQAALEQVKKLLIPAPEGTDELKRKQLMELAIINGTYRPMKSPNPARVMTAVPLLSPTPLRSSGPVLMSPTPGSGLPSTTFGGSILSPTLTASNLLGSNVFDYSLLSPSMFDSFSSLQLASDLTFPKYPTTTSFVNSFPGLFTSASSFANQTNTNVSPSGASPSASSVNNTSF
Phosphoethanolamine/phosphocholine phosphatase, sequence (Q8TCT1 whole entry): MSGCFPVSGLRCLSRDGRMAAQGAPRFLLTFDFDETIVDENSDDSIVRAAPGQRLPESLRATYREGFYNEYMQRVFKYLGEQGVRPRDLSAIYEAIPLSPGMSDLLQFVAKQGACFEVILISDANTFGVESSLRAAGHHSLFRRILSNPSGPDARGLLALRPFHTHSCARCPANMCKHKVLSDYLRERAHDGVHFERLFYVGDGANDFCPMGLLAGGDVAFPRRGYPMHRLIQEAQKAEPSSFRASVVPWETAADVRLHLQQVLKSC

With `COc1ccc(N2CCCC2)c(NC(=O)c2ccc(Br)o2)c1`, the EC50 in test [1] and in test [4] was > 99 µM (inactive) throughout. The IC50 in [2] is 21.3 µM (inactive); in test [3], > 75.4 µM (not active).

As for `Cc1ccc(S(=O)(=O)c2cc3c(=O)n4cccc(C)c4nc3n(C3CCCCC3)c2=N)cc1`, the AC50 in test [5] is 410 µM (active).

On to `O=c1c2ccccc2sn1-c1ccc(F)c(Cl)c1`, for which the IC50 in test [6] is > 100 µM (inactive); in test [7] it was 1.79 µM (inactive); in test [8] it was > 50 µM (inactive).

On to `CCN(CC)CCCNc1[nH]c2ccccc2c2nc3ccc(OC)cc3c1-2`, for which the AC50 in test [9] is > 20 µM (inactive); in [10] it was 11.6 µM (active); in test [13] it was < 0.15 µM (active); in test [14], 6.91 µM (active); in test [17] it was 12.3 µM (active); in test [18], 4.9 µM (active). Further, the concentration for half-maximal inhibition (IC50) in test [11] is 31.7 µM (active); in [12], > 67.5 µM (inactive). Also, the EC50 in test [15] is > 67.5 µM (inactive). In addition, the CC50 in test [16] is 15.1 µM (active); in [19], 1.41 µM (active).

As to `Cc1cc(=O)oc2cc(OCc3ccc(C(=O)OCC(=O)Nc4ccc(N(C)C)cc4)cc3)ccc12`, the IC50 in test [20] was 22.1 µM (active); in test [21], 6.17 µM (active); in [22], 36.3 µM (active).

The record behind these values is ChEMBL document CHEMBL1201862, “PubChem BioAssay data set” (2004).
